In US4155912A, “2-Methylpenem-3-carboxylic acid antibiotics” (Bristol-Myers Company, priority 1977, dated 1979):
Values after ≈ are worked out from the molar mass of the structure shown. Read-outs that look alike come from different tables or passages of the source.

Legend:
bacteria [1] = conditions: as reported in literature; cited from earlier work
β-lactamases = conditions: as reported in literature; cited from earlier work
[2] = Mouse blood levels after oral administration; type: in vivo
Source text: Blood level values represent averages of 4 experiments for
d,l-2-methylpenem-3-carboxylic acid, 3 for ampicillin and 1 for
Assay Organism: Bacillus megaterium A-9737

in vivo = conditions: mouse, im, 40 mg/kg
K. pneumoniae A-20468 = test: MIC by tube dilution, K. pneumoniae A-20468; type: cell-based; conditions: 37° C.; for MIC: Klebsiella pneumoniae, A20468, overnight
Method: (§1) The in vitro minimum inhibitory concentrations (MIC) of d,l-2-methylpenem-3-carboxylic acid, (+)-2-methylpenem-3-carboxylic acid and (-)-2-methylpenem-3-carboxylic acid were determined for a number of microorganisms as determined by overnight incubation at 37° C. by tube dilution. Ampicillin was included as a comparison compound.

Pr. rettgeri A-21205 = test: MIC by tube dilution, Pr. rettgeri A-21205; type: cell-based; conditions: 37° C.; for M.I.C.: Pr. rettgeri A-21205, overnight
Method: as §1

Ps. aeruginosa A-9843A = test: MIC by tube dilution, Ps. aeruginosa A-9843A; type: cell-based; conditions: overnight, 37° C.
Method: as §1

Ps. aeruginosa A-21213 = test: MIC by tube dilution, Ps. aeruginosa A-21213; type: cell-based; conditions: 37° C.; for MIC: Pseudomonas aeruginosa, A21213, Ps. aeruginosa A-21213, overnight
Method: as §1

[3] = system: Staph. aureus (Pen-Res) A-9606; test: MIC by tube dilution, Staph. aureus (Pen-Res) A-9606; type: cell-based; conditions: overnight, 37° C.
Method: as §1

[4] = system: Staph. aureus (Meth-Res) A-15097; test: MIC by tube dilution, Staph. aureus (Meth-Res) A-15097; type: cell-based; conditions: overnight, 37° C.
Method: as §1

Str. faecalis A-20688 = test: MIC by tube dilution, Str. faecalis A-20688; type: cell-based; conditions: 37° C.
Method: as §1

E. coli A-15119 = test: MIC by tube dilution, E. coli A-15119; type: cell-based; conditions: 37° C.
Method: as §1

E. coli A-20341-1 = test: MIC by tube dilution, E. coli A-20341-1; type: cell-based; conditions: 37° C.
Method: as §1

K. pneumoniae A-15130 = test: MIC by tube dilution, K. pneumoniae A-15130; type: cell-based; conditions: 37° C.
Method: as §1

Pr. mirabilis A-9900 = test: MIC by tube dilution, Pr. mirabilis A-9900; type: cell-based; conditions: 37° C.
Method: as §1

Pr. vulgaris A-9716 = test: MIC by tube dilution, Pr. vulgaris A-9716; type: cell-based; conditions: 37° C.
Method: as §1

Pr. morganii A-15153 = test: MIC by tube dilution, Pr. morganii A-15153; type: cell-based; conditions: 37° C.
Method: as §1

Ser. marcescens A-20019 = test: MIC by tube dilution, Ser. marcescens A-20019; type: cell-based; conditions: 37° C.
Method: as §1

Ent. cloacae A-9659 = test: MIC by tube dilution, Ent. cloacae A-9659; type: cell-based; conditions: 37° C.
Method: as §1

Ent. cloacae A-9656 = test: MIC by tube dilution, Ent. cloacae A-9656; type: cell-based; conditions: 37° C.
Method: as §1

bacteria [5] = conditions: as reported in literature; cited from earlier work; remark: listed apart in the source
Str. pneumoniae A-9585 = test: MIC by tube dilution, Str. pneumoniae A-9585; type: cell-based; conditions: Streptococcus pneumoniae, A9585, Str. pneumoniae A-9585, overnight, 37° C.
Method: as §1

Str. pyogenes A-9604 = test: MIC by tube dilution, Str. pyogenes A-9604; type: cell-based; conditions: Streptococcus pyogenes, A9604, Str. pyogenes A-9604, overnight, 37° C.
Method: as §1

Staph. aureus A-9537 = test: MIC by tube dilution, Staph. aureus A-9537; type: cell-based; conditions: Staphylococcus aureus, 37° C.
Method: as §1

[6] = blood, oral, 100 mg./kg., 5 minutes after administration, read-out: Blood Level
[7] = blood, oral, 100 mg./kg., 10 minutes after administration, read-out: Blood Level
[8] = blood, oral, 100 mg./kg., 15 minutes after administration, read-out: Blood Level
[9] = blood, oral, 100 mg./kg., 30 minutes after administration, read-out: Blood Level
[10] = blood, oral, 100 mg./kg., 45 minutes after administration, read-out: Blood Level

SMILES: CC(=O)NC=C[S+]([O-])C1=C(C(=O)O)N2C(=O)C(C(C)OS(=O)(=O)O)C2C1 (stereo not drawn)
- antibacterial activity (bacteria [1]): some antibacterial activity
- β-lactamase inhibition (β-lactamases): β-lactamase inhibitor

SMILES: C[C@@H](O)[C@H]1C(=O)N2C(C(=O)O)=C(SCCN)C[C@H]12 [Thienamycin]
- antibacterial activity (bacteria [1]): highly potent broad-spectrum antibiotic

SMILES: CC1(C)S[C@@H]2[C@H](NC(=O)[C@H](N)c3ccccc3)C(=O)N2[C@H]1C(=O)O [Ampicillin]
- concentration at 5 min ([2]; in vivo, po, 100 mg/kg): 2100 ng/mL
- concentration at 10 min ([2]; in vivo, po, 100 mg/kg): 3900 ng/mL
- concentration at 0.25 h ([2]; in vivo, po, 100 mg/kg): 6100 ng/mL
- concentration at 0.5 h ([2]; in vivo, po, 100 mg/kg): 8200 ng/mL
- concentration at 0.75 h ([2]; in vivo, po, 100 mg/kg): 6100 ng/mL
- concentration at 1 h ([2]; in vivo, po, 100 mg/kg): 7900 ng/mL
- concentration at 2 h ([2]; in vivo, po, 100 mg/kg): 2800 ng/mL
- concentration at 5 min (in vivo): 20800 ng/mL
- concentration at 0.25 h (in vivo): 22800 ng/mL
- concentration at 0.5 h (in vivo): 20000 ng/mL
- concentration at 0.75 h (in vivo): 11800 ng/mL
- concentration at 1 h (in vivo): 7100 ng/mL

SMILES: CC1=C(C(=O)O)N2C(=O)C[C@H]2S1 [d-2-methylpenem-3-carboxylic acid, (+)-2-methylpenem-3-carboxylic Acid]
- MIC (K. pneumoniae A-20468): > 125 µg/mL
- M.I.C. (Pr. rettgeri A-21205): 4 meg./ml.
- M.I.C. (Ps. aeruginosa A-9843A): 32 meg./ml.
- MIC (Ps. aeruginosa A-21213): 63 µg/mL (≈ 340 µM)

SMILES: CC1=C(C(=O)O)N2C(=O)C[C@H]2S1 [l-2-methylpenem-3-carboxylic acid, (-)-2-methylpenem-3-carboxylic Acid]
- M.I.C. [3]: > 125 meg./ml.
- M.I.C. [4]: > 125 meg./ml.
- M.I.C. (Str. faecalis A-20688; Str. faecalis A-20688, overnight): 125 meg./ml.
- M.I.C. (E. coli A-15119; E. coli A-15119, overnight): > 125 meg./ml.
- M.I.C. (E. coli A-20341-1; E. coli A-20341-1, overnight): > 125 meg./ml.
- M.I.C. (K. pneumoniae A-15130; K. pneumoniae A-15130, overnight): > 125 meg./ml.
- M.I.C. (K. pneumoniae A-20468; overnight): > 125 meg./ml.
- M.I.C. (Pr. mirabilis A-9900; Pr. mirabilis A-9900, overnight): > 125 meg./ml.
- M.I.C. (Pr. vulgaris A-9716; Pr. vulgaris A-9716, overnight): > 125 meg./ml.
- M.I.C. (Pr. morganii A-15153; Pr. morganii A-15153, overnight): > 125 meg./ml.
- M.I.C. (Pr. rettgeri A-21205): > 125 meg./ml.
- M.I.C. (Ser. marcescens A-20019; Ser. marcescens A-20019, overnight): > 125 meg./ml.
- M.I.C. (Ent. cloacae A-9659; Ent. cloacae A-9659, overnight): > 125 meg./ml.
- M.I.C. (Ent. cloacae A-9656; Ent. cloacae A-9656, overnight): > 125 meg./ml.
- M.I.C. (Ps. aeruginosa A-9843A): > 125 meg./ml.
- M.I.C. (Ps. aeruginosa A-21213; Ps. aeruginosa A-21213, overnight): > 125 meg./ml.

SMILES: CC1(C)S[C@@H]2[C@H](NC(=O)[C@H](N)c3ccc(O)cc3)C(=O)N2[C@H]1C(=O)O [Amoxicillin]
- concentration at 5 min [2, 6]: 1500 ng/mL
- concentration at 10 min [2, 7]: 7100 ng/mL
- concentration at 0.25 h [2, 8]: 9900 ng/mL
- concentration at 0.5 h [2, 9]: 14000 ng/mL
- concentration at 0.75 h [2, 10]: 15500 ng/mL

SMILES: O=C(O)C1C(=CCO)OC2CC(=O)N21 (stereo not drawn) [clavulinic acid]
- antibacterial activity (bacteria [1]): low order of antibacterial activity
- β-lactamase inhibition (β-lactamases): inhibits the action of certain β-lactamases
- effect on in vitro and in vivo activity of some penicillins and cephalosporins (bacteria [5]): enhances the in vitro and in vivo activity of some penicillins and cephalosporins

SMILES: CC1=C(C(=O)O)N2C(=O)C[C@H]2S1 (racemic) [d,l-2-methylpenem-3-carboxylic acid, 2-Methylpenem-3-carboxylic Acid]
- MIC (Str. pneumoniae A-9585): 0.03 µg/mL (≈ 0.162 µM)
- MIC (Str. pyogenes A-9604): 0.13 µg/mL (≈ 0.702 µM)
- MIC (Staph. aureus A-9537; A9537, Staph. aureus A-9537, overnight): 0.13 µg/mL (≈ 0.702 µM)
- MIC (Staph. aureus A-9537; A9537, Staph. aureus A-9537 and 50% serum, overnight): 8 µg/mL (≈ 43.2 µM)
- MIC ([3]; Staphylococcus aureus): 1 µg/mL (≈ 5.4 µM)
- MIC ([4]; Staphylococcus aureus): 1 µg/mL (≈ 5.4 µM)
- MIC (Str. faecalis A-20688; Enterococcus faecalis, A20688, Str. faecalis A-20688, overnight): 32 µg/mL (≈ 173 µM)
- MIC (E. coli A-15119; Escherichia coli, A15119, E. coli A-15119, overnight): 8 µg/mL (≈ 43.2 µM)
- MIC (E. coli A-20341-1; Escherichia coli, A203411, E. coli A-20341-1, overnight): 16 µg/mL (≈ 86.4 µM)
- MIC (K. pneumoniae A-15130; Klebsiella pneumoniae, A15130, K. pneumoniae A-15130, overnight): 16 µg/mL (≈ 86.4 µM)
- MIC (K. pneumoniae A-20468): > 125 µg/mL
- MIC (Pr. mirabilis A-9900; Proteus mirabilis, A9900, Pr. mirabilis A-9900, overnight): 8 µg/mL (≈ 43.2 µM)
- MIC (Pr. vulgaris A-9716; Proteus vulgaris, A9716, Pr. vulgaris A-9716, overnight): 8 µg/mL (≈ 43.2 µM)
- MIC (Pr. morganii A-15153; Morganella morganii, A15153, Pr. morganii A-15153, overnight): 16 µg/mL (≈ 86.4 µM)
- MIC (Pr. rettgeri A-21205; Providencia rettgeri, A21205, Pr. rettgeri A-21205, overnight): 4 µg/mL (≈ 21.6 µM)
- MIC (Ser. marcescens A-20019; Serratia marcescens, A20019, Ser. marcescens A-20019, overnight): 8 µg/mL (≈ 43.2 µM)
- MIC (Ent. cloacae A-9659; Enterobacter cloacae, A9659, Ent. cloacae A-9659, overnight): 16 µg/mL (≈ 86.4 µM)
- MIC (Ent. cloacae A-9656; Enterobacter cloacae, A9656, Ent. cloacae A-9656, overnight): 16 µg/mL (≈ 86.4 µM)
- MIC (Ps. aeruginosa A-9843A; Pseudomonas aeruginosa, A9843A): 125 µg/mL (≈ 675 µM)
- MIC (Ps. aeruginosa A-21213): > 125 µg/mL
- concentration at 5 min [2, 6]: 28000 ng/mL
- concentration at 10 min [2, 7]: 25100 ng/mL
- concentration at 0.25 h [2, 8]: 18400 ng/mL
- concentration at 0.5 h [2, 9]: < 5600 ng/mL
- concentration at 0.75 h [2, 10]: < 3900 ng/mL
- concentration at 1 h ([2]; blood, oral, 100 mg./kg., 60 minutes after administration, read-out: Blood Level): < 4300 ng/mL
- concentration at 2 h ([2]; blood, oral, 100 mg./kg., 120 minutes after administration, read-out: Blood Level): < 4300 ng/mL
- concentration at 5 min (in vivo): 27100 ng/mL
- concentration at 0.25 h (in vivo): 12700 ng/mL
- concentration at 0.5 h (in vivo): < 5900 ng/mL
- concentration at 0.75 h (in vivo): < 5900 ng/mL
- concentration at 1 h (in vivo): < 5900 ng/mL
